Ends that are not written are not given here.
Test system: renin
Assay type: biochemical, hog
Details: for Vmax per Goldblatt unit/ml: average over the renin concentrations used; for Km relative to the tetradecapeptide (times larger): ratio of Km values

Substance | Vmax per Goldblatt unit/ml (pH 7.5, 37.5C) | also measured
NRVYVHPFHLLVYS [reference compound] | 9.1 x 10-6 M/min per Goldblatt uni | –
Asp Arg Val Tyr Ileu His Pro Phe His Leu Leu Val Tyr Ser [asp^1-arg^2-val^3-tyr^4-ileu^5-his^6-pro^7-phe^8-his^9-leu^10-leu^11-val^12-tyr^13-ser^14] | 10.2 x 10-6 M/min per Goldblatt uni | –
Val Tyr Ileu His Pro Phe His Leu Leu Val Tyr Ser | 8.9 x 10-6 M/min per Goldblatt uni | Vmax (renin concentration 0.0195 Goldblatt units/ml (so in the source), pH 7.5, 37.5C): 9.1e-07 M/min
HPFHLLV | – | Average Km (mean of the Km values at the two renin concentrations, pH 7.5, 37.5C): eo; Substrate activity with renin (renin 0.183 Goldblatt units/ml, pH 7.5, 37.5C): no hydrolysis occurred
HPFHLLVYS [his^6-pro^7-phe^8-his^9-leu^10-leu^11-val^12-tyr^13-ser^14] | 11.7 x 10-6 M/min per Goldblatt uni | Km relative to the tetradecapeptide (times larger): ~ 12 times
Tyr Ileu His Pro Phe His Leu Leu Val Tyr Ser | 9.8 x 10-6 M/min per Goldblatt uni | –
Ileu His Pro Phe His Leu Leu Val Tyr Ser | 10.9 x 10-6 M/min per Goldblatt uni | –
HPFHLLVY [his^6-pro^7-phe^8-his^9-leu^10-leu^11-val^12-tyr^13] | 7.6 x 10-6 M/min per Goldblatt uni | Km relative to the tetradecapeptide (times larger): ~ 12 times
PFHLLVYS | 0.55 x 10-6 M/min per Goldblatt uni | Vm as printed in the Lineweaver-Burk plot of Fig. 4 (value of the figure where it differs from Table I): 0.6 x 10-6 M/min/Goldblatt unit

— paper PMC2138508 (The Journal of Experimental Medicine, 1968)
